The data set in a line: Rat tissue distribution of 99mTc complexes of example ligands (Table 6). In kind it is in vivo, Sprague-Dawley Rats. As to conditions: 99mTc complex. The procedure: Rat Tissue Distribution Studies. The distribution and pharmacokinetics of selected ^99mTc-SAAC complexes were evaluated in normal male Sprague Dawley rats (180-200 grams) administered via the tail vein as a bolus injection (approximately 10 μCi/rat) in a constant volume of 0.1 ml. The animals (n=5 per time point) were euthanized by asphyxiation with carbon dioxide at 5, 30, 60, and 120 min post injection. Tissues (blood, heart, lungs, liver, spleen, kidneys, adrenals, stomach, intestines (with contents), testes, skeletal muscle, bone and brain) were dissected, excised, weighed wet, and counted in an automated γ-counter (LKB Model 1282, Wallac Oy, Finland). Tissue time-radioactivity levels expressed as percent injected dose per gram of tissue (% ID/g) was determined.
^99mTc Complexes of various example ligands in Sprague-Dawley Rats.

From patent US8562945B2, “Technetium- and rhenium-bis(heteroaryl) complexes and methods of use thereof” (Molecular Insight Pharmaceuticals, Inc., priority 2008, dated 2013) come the findings set out here.

`N[C@@H](CCCCN(Cc1nccn1CC(=O)O)Cc1nccn1CC(=O)O)C(=O)O` (stereo in doubt) [Compound 2, 2,2′-(2,2′-(5-amino-5-carboxypentylazanediyl)bis(methylene)bis(1H-imidazole-2,1-diyl))diacetic acid]: under “5 min”, the Blood tissue distribution was found to be 1.33 ± 0.2 % ID/g, the GI tissue distribution is reported as 0.15 ± 0.02 % ID/g, the Kidney tissue distribution is 6.85 ± 1.85 % ID/g and the Liver tissue distribution was determined as 0.52 ± 0.07 % ID/g. Further, the “Sk. Muscle tissue distribution” value (5 min) came to 0.29 ± 0.04 % ID/g. Where the note is “30 min”, the Blood tissue distribution is listed as 1.14 ± 0.23 % ID/g, the GI tissue distribution was found to be 0.44 ± 0.08 % ID/g, the Kidney tissue distribution is 10.7 ± 2.3 % ID/g and the Liver tissue distribution is 0.55 ± 0.07 % ID/g. Moreover, the “Sk. Muscle tissue distribution” value (30 min) turned out to be 0.21 ± 0.06 % ID/g. For the setting “60 min”, this molecule displayed a Blood tissue distribution of 0.86 ± 0.17 % ID/g, a GI tissue distribution of 0.76 ± 0.31 % ID/g, a Kidney tissue distribution of 16.8 ± 4.8 % ID/g and a Liver tissue distribution of 0.42 ± 0.08 % ID/g. In addition, the “Sk. Muscle tissue distribution” value (60 min) is listed as 0.16 ± 0.03 % ID/g. Where the note is “120 min”, this molecule yielded a Blood tissue distribution of 0.72 ± 0.12 % ID/g, a GI tissue distribution of 1.22 ± 0.27 % ID/g, a Kidney tissue distribution of 10.2 ± 2.5 % ID/g and a Liver tissue distribution of 0.39 ± 0.07 % ID/g. Also, the “Sk. Muscle tissue distribution” value (120 min) worked out at 0.14 ± 0.02 % ID/g.

Regarding `CCOCCn1ccnc1CN(CCCC[C@H](N)C(=O)O)Cc1nccn1CCOCC` (stereo in doubt) [Compound 4, 2-amino-6-(bis((1-(2-ethoxyethyl)-1H-imidazol-2-yl)methyl)amino)hexanoic acid], where the note is “5 min”, the Blood tissue distribution turned out to be 0.83 ± 0.09 % ID/g, the GI tissue distribution came out at 0.57 ± 0.13 % ID/g, the Kidney tissue distribution is listed as 6.86 ± 0.86 % ID/g and the Liver tissue distribution is given as 1.61 ± 0.32 % ID/g. Also, the “Sk. Muscle tissue distribution” value (5 min) is 0.13 ± 0.02 % ID/g. For the setting “30 min”, this molecule yielded a Blood tissue distribution of 0.09 ± 0.02 % ID/g, a GI tissue distribution of 2.33 ± 0.61 % ID/g, a Kidney tissue distribution of 12.13 ± 2.36 % ID/g and a Liver tissue distribution of 0.35 ± 0.08 % ID/g. Where the note is “30 min”, the “Sk. Muscle tissue distribution” value amounted to 0.02 ± 0.01 % ID/g. For the setting “60 min”, this molecule displayed a Blood tissue distribution of 0.02 ± 0 % ID/g, a GI tissue distribution of 3.62 ± 0.3 % ID/g, a Kidney tissue distribution of 12.54 ± 1 % ID/g and a Liver tissue distribution of 0.28 ± 0.07 % ID/g. Moreover, the “Sk. Muscle tissue distribution” value (60 min) was 0.01 ± 0 % ID/g. Further, under “120 min”, the Blood tissue distribution is 0.01 ± 0 % ID/g, the GI tissue distribution turned out to be 2.96 ± 0.44 % ID/g, the Kidney tissue distribution worked out at 12.54 ± 0.81 % ID/g and the Liver tissue distribution came to 0.14 ± 0.02 % ID/g. The “Sk. Muscle tissue distribution” value (120 min) came out at 0.01 ± 0 % ID/g.

For the setting “5 min”, `COC(Cn1ccnc1CN(CCCC[C@H](N)C(=O)O)Cc1nccn1CC(OC)OC)OC` (stereo in doubt) [Compound 6, 2-amino-6-(bis((1-(2,2-dimethoxyethyl)-1H-imidazol-2-yl)methyl)amino)hexanoic acid] yielded a Blood tissue distribution of 1.46 ± 0.21 % ID/g, a GI tissue distribution of 0.34 ± 0.12 % ID/g, a Kidney tissue distribution of 13.82 ± 2.81 % ID/g and a Liver tissue distribution of 1.06 ± 0.34 % ID/g. Further, the “Sk. Muscle tissue distribution” value (5 min) came out at 0.3 ± 0.04 % ID/g. Further, for the setting “30 min”, the Blood tissue distribution is listed as 0.47 ± 0.05 % ID/g, the GI tissue distribution was 1.05 ± 0.2 % ID/g, the Kidney tissue distribution came to 34.1 ± 5.59 % ID/g and the Liver tissue distribution is reported as 0.45 ± 0.04 % ID/g. Moreover, the “Sk. Muscle tissue distribution” value (30 min) is 0.1 ± 0.01 % ID/g. Where the note is “60 min”, this molecule yielded a Blood tissue distribution of 0.14 ± 0.04 % ID/g, a GI tissue distribution of 1.39 ± 0.24 % ID/g, a Kidney tissue distribution of 40.25 ± 5.17 % ID/g and a Liver tissue distribution of 0.24 ± 0.04 % ID/g. Further, for the setting “60 min”, the “Sk. Muscle tissue distribution” value is reported as 0.04 ± 0.01 % ID/g. Where the note is “120 min”, this molecule displayed a Blood tissue distribution of 0.04 ± 0.01 % ID/g, a GI tissue distribution of 1.21 ± 0.27 % ID/g, a Kidney tissue distribution of 33.18 ± 2.75 % ID/g and a Liver tissue distribution of 0.16 ± 0.02 % ID/g. The “Sk. Muscle tissue distribution” value (120 min) stood at 0.01 ± 0 % ID/g.

For the setting “5 min”, `Cn1ccnc1CN(CCCC[C@H](N)C(=O)O)Cc1nccn1C` [Compound 13, (S)-2-amino-6-(bis((1-methyl-1H-imidazol-2-yl)methyl)amino)hexanoic acid] had a Blood tissue distribution of 1.18 ± 0.18 % ID/g, a GI tissue distribution of 0.15 ± 0.02 % ID/g, a Kidney tissue distribution of 6.65 ± 2.06 % ID/g and a Liver tissue distribution of 0.8 ± 0.28 % ID/g. Moreover, where the note is “5 min”, the “Sk. Muscle tissue distribution” value is reported as 0.22 ± 0.03 % ID/g. For the setting “30 min”, this molecule returned a Blood tissue distribution of 0.28 ± 0.03 % ID/g, a GI tissue distribution of 0.45 ± 0.11 % ID/g, a Kidney tissue distribution of 22.2 ± 3.9 % ID/g and a Liver tissue distribution of 1.03 ± 0.21 % ID/g. Besides, under “30 min”, the “Sk. Muscle tissue distribution” value worked out at 0.06 ± 0.02 % ID/g. Under “60 min”, this molecule came in with a Blood tissue distribution of 0.11 ± 0.02 % ID/g, a GI tissue distribution of 0.84 ± 0.1 % ID/g, a Kidney tissue distribution of 25.4 ± 1.7 % ID/g and a Liver tissue distribution of 0.86 ± 0.16 % ID/g. The “Sk. Muscle tissue distribution” value (60 min) came out at 0.03 ± 0.01 % ID/g. In addition, under “120 min”, the Blood tissue distribution amounted to 0.03 ± 0.01 % ID/g, the GI tissue distribution turned out to be 1.12 ± 0.37 % ID/g, the Kidney tissue distribution was determined as 25.5 ± 3.4 % ID/g and the Liver tissue distribution is reported as 0.74 ± 0.14 % ID/g. Further, the “Sk. Muscle tissue distribution” value (120 min) was determined as 0.01 ± 0 % ID/g.

For the setting “5 min”, `Cn1ccnc1CN(CCCC[C@H](N)C(=O)O)CC(=O)O` [Compound 18, (S)-2-amino-6-((carboxymethyl)((1-methyl-1H-imidazol-2-yl)methyl)amino) hexanoic acid] showed a Blood tissue distribution of 1.03 ± 0.14 % ID/g, a GI tissue distribution of 0.16 ± 0.01 % ID/g, a Kidney tissue distribution of 10.79 ± 1.97 % ID/g and a Liver tissue distribution of 0.95 ± 0.14 % ID/g. Besides, under “5 min”, the “Sk. Muscle tissue distribution” value stood at 0.21 ± 0.05 % ID/g. In addition, where the note is “30 min”, the Blood tissue distribution stood at 0.45 ± 0.1 % ID/g, the GI tissue distribution came out at 1.96 ± 0.49 % ID/g, the Kidney tissue distribution came out at 17.05 ± 3.17 % ID/g and the Liver tissue distribution was found to be 3.02 ± 0.59 % ID/g. The “Sk. Muscle tissue distribution” value (30 min) is recorded as 0.09 ± 0.02 % ID/g. Moreover, for the setting “60 min”, the Blood tissue distribution is reported as 0.22 ± 0.02 % ID/g, the GI tissue distribution amounted to 1.64 ± 0.64 % ID/g, the Kidney tissue distribution was 9.52 ± 2.54 % ID/g and the Liver tissue distribution was found to be 0.98 ± 0.22 % ID/g. Moreover, the “Sk. Muscle tissue distribution” value (60 min) was 0.05 ± 0.01 % ID/g. Where the note is “120 min”, this molecule registered a Blood tissue distribution of 0.09 ± 0.01 % ID/g, a GI tissue distribution of 2.53 ± 0.7 % ID/g, a Kidney tissue distribution of 3.94 ± 0.43 % ID/g and a Liver tissue distribution of 0.44 ± 0.14 % ID/g. Besides, under “120 min”, the “Sk. Muscle tissue distribution” value is reported as 0.02 ± 0 % ID/g.
